# Data published in patent publication US20020137929A1, “1 - (3-heterocyclylphenyl) isothiourea, -isourea, -guanidine and -amidine herbicidal agents” (Intellectual Property Department, BASF Aktiengesellschaft, priority 1998, published 2002).
# How the values were obtained:
# AMBEL (Ragweed, Common) = assay: Preemergence herbicidal evaluation; type: in vivo, Ambrosia artemisifolia; settings: rated 4-5 weeks after treatment; for AMBEL rating: preemergence, 0-9 scale
# Summary of the method: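 Preemergence soil application of compound, sprayed in aqueous acetone at rates equivalent to about 0.0156 to 0.500 kg per hectare onto freshly sown cups. Plant response was judged by eye on a 0-9 scale four to five weeks later.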
# CYPIR (Rice Flatsedge) = assay: Preemergence weed control under flooded paddy conditions; type: in vivo, Cyperus iria; settings: rated 3-4 weeks after treatment
# Summary of the method: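 Silt loam, seeds in top 0.5 cm; flood held 1.5-3 cm; test cpd as acetone/water 50/50 into flood water, ~0.0313-0.500 kg/ha a.i.; greenhouse 3-4 wk; visual 0-9 score vs control.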
# MOOVA (Monochoria) = assay: Postemergence weed control under flooded paddy conditions; type: in vivo, Monochoria vaginalis; settings: postemergence weeds, rated 3 to 4 weeks after treatment
# Summary of the method: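 With weeds 3 to 5 cm tall and rice at the 1.5 to 2.5 leaf stage, containers were flooded and water held 1.5 to 3 cm above soil. Compounds in 50/50 v/v aqueous/acetone went into the flood water at about 0.0313 to 0.500 kg/ha a.i. Effects were visually rated 0–9 against controls after three to four weeks in the greenhouse.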
SMILES,"Preemergence herbicidal rating AMBEL (AMBEL (Ragweed, Common); rate 0.0156 kg/ha)","Preemergence herbicidal rating AMBEL (AMBEL (Ragweed, Common); rate 0.0313 kg/ha)","Preemergence herbicidal rating AMBEL (AMBEL (Ragweed, Common); rate 0.0625 kg/ha)","Preemergence herbicidal rating AMBEL (AMBEL (Ragweed, Common); rate 0.1250 kg/ha)","Preemergence herbicidal rating AMBEL (AMBEL (Ragweed, Common); rate 0.2500 kg/ha)",CYPIR herbicidal effect rating (CYPIR (Rice Flatsedge); 0.0313 kg/ha),CYPIR herbicidal effect rating (CYPIR (Rice Flatsedge); 0.0625 kg/ha),CYPIR herbicidal effect rating (CYPIR (Rice Flatsedge); 0.1250 kg/ha),CYPIR herbicidal effect rating (CYPIR (Rice Flatsedge); 0.2500 kg/ha),Herbicidal rating MOOVA (MOOVA (Monochoria); Rate 0.0313 kg/ha),Herbicidal rating MOOVA (MOOVA (Monochoria); Rate 0.0625 kg/ha),Herbicidal rating MOOVA (MOOVA (Monochoria); Rate 0.1250 kg/ha),Herbicidal rating MOOVA (MOOVA (Monochoria); Rate 0.2500 kg/ha),"AMBEL rating (AMBEL (Ragweed, Common); 0.0156 kg/ha)","AMBEL rating (AMBEL (Ragweed, Common); 0.0313 kg/ha)","AMBEL rating (AMBEL (Ragweed, Common); 0.0625 kg/ha)","AMBEL rating (AMBEL (Ragweed, Common); 0.1250 kg/ha)","AMBEL rating (AMBEL (Ragweed, Common); 0.2500 kg/ha)","AMBEL rating (AMBEL (Ragweed, Common); 0.5000 kg/ha)"
"C=CCN1C(=O)C(CC(=O)OC)SC1=Nc1cc(-n2c(=O)cc(C(F)(F)F)n(C)c2=O)c(F)cc1Cl (stereo not drawn) [Compound 64, Methyl 3-allyl-2-{{2-chloro-5-[3,6-dihydro-3-methyl-2,6-dioxo-4-(trifluoromethyl)-1(2H)-pyrimidinyl]-4-fluorophenyl}imino}-4-oxo-5-thiazolidineacetate]",2.0,6.0,7.0,9.0,9.0,0.0,2.0,2.0,7.0,7.0,9.0,9.0,9.0,–,–,–,–,–,–
"C=CCOC(=O)CC1SC(=Nc2cc(-n3c(=O)cc(C(F)(F)F)n(C)c3=O)c(F)cc2Cl)N(CC=C)C1=O (stereo not drawn) [Compound 65, Allyl 3-allyl-2-{(2-chloro-5-[3,6-dihydro-3-methyl-2,6-dioxo-4-(trifluoromethyl)-1(2H)-pyrimidinyl]-4-fluorophenyl}imino}-4-oxo-5-thiazolidineacetate]",1.0,2.0,4.0,9.0,9.0,6.0,7.0,7.0,8.0,9.0,9.0,9.0,9.0,–,–,–,–,–,–
"C#CCOC(=O)CC1SC(=Nc2cc(-n3c(=O)cc(C(F)(F)F)n(C)c3=O)c(F)cc2Cl)N(CC=C)C1=O (stereo not drawn) [Compound 67, 2-Propynyl 3-allyl-2-{{2-chloro-5-[3,6-dihydro-3-methyl-2,6-dioxo-4-(trifluoromethyl)-1(2H)-pyrimidinyl]-4-fluorophenyl}imino}-4-oxo-5-thiazolidineacetate]",0.0,0.0,3.0,7.0,7.0,5.0,5.0,5.0,8.0,9.0,9.0,9.0,9.0,–,–,–,–,–,–
"CCOC(=O)CN1C(=O)C(CC(=O)Nc2ccccc2)SC1=Nc1cc(-n2c(=O)cc(C(F)(F)F)n(C)c2=O)c(F)cc1Cl (stereo not drawn) [Compound 68, Ethyl 2-{{2-chloro-5-[3,6-dihydro-3-methyl-2,6-dioxo-4-(trifluoromethyl)-1(2H)-pyrimidinyl]-4-fluorophenyl}imino}-4-oxo-5-[(phenylcarbamoyl)-methyl]-3-thiazolidineacetate]",0.0,0.0,0.0,1.0,7.0,0.0,0.0,5.0,8.0,3.0,9.0,9.0,9.0,–,–,–,–,–,–
"CCOC(=O)CN1C(=O)C(CC(=O)NOC)SC1=Nc1cc(-n2c(=O)cc(C(F)(F)F)n(C)c2=O)c(F)cc1Cl (stereo not drawn) [Compound 83, Ethyl 2-{{2-chloro-5-[3,6-dihydro-3-methyl-2,6-dioxo-4-(trifluoromethyl)-1(2H)-pyrimidinyl]-4-fluorophenyl}imino}-5-[(methoxycarbamoyl)methyl]-4-oxo-3-thiazolidineacetate]",–,–,–,–,–,5.0,6.0,6.0,7.0,9.0,9.0,9.0,9.0,0.0,0.0,0.0,9.0,9.0,9.0
"C=CCN1C(=O)C(CC(=O)NC)SC1=Nc1cc(-n2c(=O)cc(C(F)(F)F)n(C)c2=O)c(F)cc1Cl (stereo not drawn) [Compound 84, 3-Allyl-2-{{2-chloro-5-[3,6-dihydro-3-methyl-2,6-dioxo-4-(trifluoromethyl)-1(2H)-pyrimidinyl]-4-fluorophenyl}imino}-N-methyl-4-oxo-5-thiazolidineacetamide]",–,–,–,–,–,3.0,7.0,9.0,9.0,9.0,9.0,9.0,9.0,0.0,3.0,4.0,9.0,9.0,9.0
"CC(C)OC(=O)CC1SC(=Nc2cc(-n3c(=O)cc(C(F)(F)F)n(C)c3=O)c(F)cc2Cl)N(C)C1=O (stereo not drawn) [Compound 89, Isopropyl 2-{{2-chloro-5-[3,6-dihydro-3-methyl-2,6-dioxo-4-(trifluoromethyl)-1(2H)-pyrimidinyl]-4-fluorophenyl}imino}-3-methyl-4-oxo-5-thiazolidineacetate]",–,–,–,–,–,0.0,0.0,2.0,4.0,9.0,9.0,9.0,9.0,0.0,0.5,2.0,6.5,6.5,9.0
"C#CCOC(=O)CC1SC(=Nc2cc(-n3c(=O)cc(C(F)(F)F)n(C)c3=O)c(F)cc2Cl)N(C)C1=O (stereo not drawn) [Compound 90, 2-Propynyl 2-{{2-chloro-5-[3,6-dihydro-3-methyl-2,6-dioxo-4-(trifluoromethyl)-1(2H)-pyrimidinyl]-4-fluorophenyl}imino}-3-methyl-4-oxo-5-thiazolidineacetate]",–,–,–,–,–,0.0,0.0,1.0,3.0,9.0,9.0,9.0,9.0,–,0.0,3.0,9.0,9.0,–
"CN1C(=O)C(CC(=O)Nc2ccccc2)SC1=Nc1cc(-n2c(=O)cc(C(F)(F)F)n(C)c2=O)c(F)cc1Cl (stereo not drawn) [Compound 91, 2-{{2-Chloro-5-[3,6-dihydro-3-methyl-2,6-dioxo-4-(trifluoromethyl)-1(2H)-pyrimidinyl]-4-fluorophenyl}imino}-3-methyl-4-oxo-5-thiazolidineacetanilide]",–,–,–,–,–,0.0,0.0,0.0,0.0,9.0,9.0,9.0,9.0,–,–,–,0.0,0.0,–
"C=CCN1C(=O)C(CC(=O)NS(C)(=O)=O)SC1=Nc1cc(-n2c(=O)cc(C(F)(F)F)n(C)c2=O)c(F)cc1Cl (stereo not drawn) [Compound 96, 3-Allyl-2-{{2-chloro-5-[3,6-dihydro-3-methyl-2,6-dioxo-4-(trifluoromethyl)-1(2H)-pryimidinyl]-4-fluorophenyl}imino}-N-(methylsulfonyl)-4-oxo-5-thiazolidineacetamide]",–,–,–,–,–,0.0,5.0,6.0,6.0,2.0,2.0,3.0,3.0,–,0.0,0.0,1.0,4.0,6.0
